Drawing on ChEMBL document CHEMBL1909046, “DrugMatrix in vitro pharmacology data”, this text covers IC50 and Ki for 3 molecules.

The target in one experiment is T1, Interstitial collagenase (Homo sapiens, UniProt P03956).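 Note: MMP-1 enzyme inhibition assay using a peptide substrate; in other assays of this panel Not Active means under 50% inhibition at 10 µM.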
T1 sequence (P03956 whole entry): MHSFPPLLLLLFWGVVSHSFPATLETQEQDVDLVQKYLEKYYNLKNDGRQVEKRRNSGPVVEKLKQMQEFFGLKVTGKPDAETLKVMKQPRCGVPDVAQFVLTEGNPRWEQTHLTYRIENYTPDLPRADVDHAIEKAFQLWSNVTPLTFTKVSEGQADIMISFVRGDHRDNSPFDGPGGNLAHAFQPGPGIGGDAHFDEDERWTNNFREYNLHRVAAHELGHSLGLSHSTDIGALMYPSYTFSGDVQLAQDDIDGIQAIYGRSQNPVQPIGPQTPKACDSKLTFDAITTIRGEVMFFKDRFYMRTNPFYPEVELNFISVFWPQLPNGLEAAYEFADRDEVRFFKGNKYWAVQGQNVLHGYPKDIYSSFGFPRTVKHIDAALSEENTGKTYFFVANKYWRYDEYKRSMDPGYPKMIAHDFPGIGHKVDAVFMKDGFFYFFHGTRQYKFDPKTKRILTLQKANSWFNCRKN
As to the kind of experiment: biochemical. The format is tissue-based, Rheumatoid synovial fibroblasts.

Experiment [1] addresses Prostaglandin G/H synthase 1 (Homo sapiens, UniProt P23219). As to the kind of experiment: biochemical. The experiment is classed as tissue-based, Platelet.
The target in experiment [2] is T2, Amine oxidase [flavin-containing] A (Homo sapiens, UniProt P21397).
T2 sequence (P21397 whole entry): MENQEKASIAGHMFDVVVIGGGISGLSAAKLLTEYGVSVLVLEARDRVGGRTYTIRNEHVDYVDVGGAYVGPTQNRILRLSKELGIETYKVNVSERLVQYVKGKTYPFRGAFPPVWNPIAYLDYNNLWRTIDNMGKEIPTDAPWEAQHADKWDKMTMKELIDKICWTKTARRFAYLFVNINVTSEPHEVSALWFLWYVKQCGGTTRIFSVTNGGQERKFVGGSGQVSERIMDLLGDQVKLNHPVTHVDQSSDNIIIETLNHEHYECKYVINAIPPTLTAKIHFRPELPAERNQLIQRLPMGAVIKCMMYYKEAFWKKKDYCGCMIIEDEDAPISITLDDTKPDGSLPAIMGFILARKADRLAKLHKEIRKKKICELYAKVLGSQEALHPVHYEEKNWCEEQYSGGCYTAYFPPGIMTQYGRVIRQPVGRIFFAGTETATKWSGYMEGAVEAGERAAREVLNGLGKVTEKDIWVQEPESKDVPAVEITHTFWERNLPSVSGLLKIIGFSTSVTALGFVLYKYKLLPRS
As to the kind of experiment: DRUGMATRIX: Monoamine Oxidase MAO-A enzyme inhibition (substrate: Kynuramine). Set-up: species or system BTI-TN-5B1-4. The note with it: bti-tn-5b1-4; Not Active = under 50% inhibition at 10 µM.

Experiment [3] in a line: DRUGMATRIX: ATPase, Na+/K+ enzyme inhibition (substrate: ATP). The experiment is classed as tissue-based, Sus scrofa, Heart. The note with it: Not Active = under 50% inhibition at 10 µM.
A short description of experiment [4]: DRUGMATRIX: Calcium Channel Type L, Benzothiazepine radioligand binding (ligand: [3H] Diltiazem). The experiment is classed as cell membranes, Rattus norvegicus, Wistar, Brain, Membrane. The note with it: Not Active = under 50% inhibition at 10 µM.
Experiment [5] has as its target Vascular endothelial growth factor receptor 1 (Homo sapiens, UniProt P17948). As to the kind of experiment: biochemical. The note with it: huvec. The format is cell-based, HUVEC. Note: in other assays of this panel Not Active means under 50% inhibition at 10 µM.
The next experiment addresses T3, Cytochrome P450 1A2 (Homo sapiens, UniProt P05177).
T3 sequence (P05177 whole entry): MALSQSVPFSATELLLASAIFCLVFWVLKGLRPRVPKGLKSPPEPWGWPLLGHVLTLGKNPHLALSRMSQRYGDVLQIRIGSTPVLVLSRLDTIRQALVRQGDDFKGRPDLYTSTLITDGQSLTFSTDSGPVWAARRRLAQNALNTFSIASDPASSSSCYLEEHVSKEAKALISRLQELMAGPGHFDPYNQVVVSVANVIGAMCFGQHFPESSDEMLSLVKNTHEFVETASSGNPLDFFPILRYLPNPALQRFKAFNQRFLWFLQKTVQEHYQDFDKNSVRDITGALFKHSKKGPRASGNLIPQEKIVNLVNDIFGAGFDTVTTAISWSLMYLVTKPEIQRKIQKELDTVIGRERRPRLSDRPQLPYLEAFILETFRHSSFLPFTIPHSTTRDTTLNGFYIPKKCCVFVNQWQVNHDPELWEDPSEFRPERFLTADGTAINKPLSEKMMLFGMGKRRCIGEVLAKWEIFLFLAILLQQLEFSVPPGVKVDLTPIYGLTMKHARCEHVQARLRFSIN

A further experiment has as its target T4, Androgen receptor (Rattus norvegicus, UniProt P15207). Note: in other assays of this panel Not Active means under 50% inhibition at 10 µM.
T4 sequence (P15207 whole entry): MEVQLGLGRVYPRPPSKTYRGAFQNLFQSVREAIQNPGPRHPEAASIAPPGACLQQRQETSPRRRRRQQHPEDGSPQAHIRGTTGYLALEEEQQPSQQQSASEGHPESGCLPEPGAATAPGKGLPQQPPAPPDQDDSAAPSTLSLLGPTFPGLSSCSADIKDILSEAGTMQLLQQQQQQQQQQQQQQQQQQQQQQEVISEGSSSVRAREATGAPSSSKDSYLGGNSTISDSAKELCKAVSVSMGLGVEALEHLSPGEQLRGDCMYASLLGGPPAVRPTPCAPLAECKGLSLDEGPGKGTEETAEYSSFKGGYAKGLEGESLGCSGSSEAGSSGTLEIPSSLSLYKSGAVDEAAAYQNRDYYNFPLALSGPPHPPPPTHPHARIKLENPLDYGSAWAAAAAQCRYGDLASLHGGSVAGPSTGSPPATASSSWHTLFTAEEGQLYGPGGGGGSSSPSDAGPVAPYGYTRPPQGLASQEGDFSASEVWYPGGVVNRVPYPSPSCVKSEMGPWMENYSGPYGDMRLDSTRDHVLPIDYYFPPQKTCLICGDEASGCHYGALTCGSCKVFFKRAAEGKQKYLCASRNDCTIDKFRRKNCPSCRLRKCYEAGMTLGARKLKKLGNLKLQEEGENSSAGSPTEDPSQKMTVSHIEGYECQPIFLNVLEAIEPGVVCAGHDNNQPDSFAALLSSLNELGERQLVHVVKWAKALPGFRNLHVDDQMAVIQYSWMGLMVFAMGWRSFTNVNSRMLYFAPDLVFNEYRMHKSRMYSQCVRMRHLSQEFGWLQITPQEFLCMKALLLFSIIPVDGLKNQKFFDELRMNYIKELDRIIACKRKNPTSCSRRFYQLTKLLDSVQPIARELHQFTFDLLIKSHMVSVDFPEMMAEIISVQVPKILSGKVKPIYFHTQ

The next experiment has as its target Cytochrome P450 2D6 (Homo sapiens, UniProt P10635). Note: in other assays of this panel Not Active means under 50% inhibition at 10 µM.

SMILES strings stand for the structures.

Prostaglandin G/H synthase 1, sequence (P23219 whole entry): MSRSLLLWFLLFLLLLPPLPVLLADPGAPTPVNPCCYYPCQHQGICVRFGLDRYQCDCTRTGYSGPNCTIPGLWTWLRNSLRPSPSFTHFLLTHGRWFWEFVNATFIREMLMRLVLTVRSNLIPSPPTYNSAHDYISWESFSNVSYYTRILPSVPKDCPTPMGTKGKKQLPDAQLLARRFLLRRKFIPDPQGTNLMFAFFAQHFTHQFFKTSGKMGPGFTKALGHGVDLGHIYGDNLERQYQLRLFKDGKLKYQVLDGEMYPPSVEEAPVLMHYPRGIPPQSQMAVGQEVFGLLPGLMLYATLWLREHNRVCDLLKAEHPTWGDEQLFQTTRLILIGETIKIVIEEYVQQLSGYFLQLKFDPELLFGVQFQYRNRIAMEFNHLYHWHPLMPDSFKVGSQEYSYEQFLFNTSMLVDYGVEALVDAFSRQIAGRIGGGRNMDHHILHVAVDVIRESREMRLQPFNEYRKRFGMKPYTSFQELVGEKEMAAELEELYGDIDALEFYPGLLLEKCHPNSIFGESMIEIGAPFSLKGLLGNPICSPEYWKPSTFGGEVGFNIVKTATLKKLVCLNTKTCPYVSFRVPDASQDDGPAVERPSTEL
Vascular endothelial growth factor receptor 1, sequence (P17948 whole entry): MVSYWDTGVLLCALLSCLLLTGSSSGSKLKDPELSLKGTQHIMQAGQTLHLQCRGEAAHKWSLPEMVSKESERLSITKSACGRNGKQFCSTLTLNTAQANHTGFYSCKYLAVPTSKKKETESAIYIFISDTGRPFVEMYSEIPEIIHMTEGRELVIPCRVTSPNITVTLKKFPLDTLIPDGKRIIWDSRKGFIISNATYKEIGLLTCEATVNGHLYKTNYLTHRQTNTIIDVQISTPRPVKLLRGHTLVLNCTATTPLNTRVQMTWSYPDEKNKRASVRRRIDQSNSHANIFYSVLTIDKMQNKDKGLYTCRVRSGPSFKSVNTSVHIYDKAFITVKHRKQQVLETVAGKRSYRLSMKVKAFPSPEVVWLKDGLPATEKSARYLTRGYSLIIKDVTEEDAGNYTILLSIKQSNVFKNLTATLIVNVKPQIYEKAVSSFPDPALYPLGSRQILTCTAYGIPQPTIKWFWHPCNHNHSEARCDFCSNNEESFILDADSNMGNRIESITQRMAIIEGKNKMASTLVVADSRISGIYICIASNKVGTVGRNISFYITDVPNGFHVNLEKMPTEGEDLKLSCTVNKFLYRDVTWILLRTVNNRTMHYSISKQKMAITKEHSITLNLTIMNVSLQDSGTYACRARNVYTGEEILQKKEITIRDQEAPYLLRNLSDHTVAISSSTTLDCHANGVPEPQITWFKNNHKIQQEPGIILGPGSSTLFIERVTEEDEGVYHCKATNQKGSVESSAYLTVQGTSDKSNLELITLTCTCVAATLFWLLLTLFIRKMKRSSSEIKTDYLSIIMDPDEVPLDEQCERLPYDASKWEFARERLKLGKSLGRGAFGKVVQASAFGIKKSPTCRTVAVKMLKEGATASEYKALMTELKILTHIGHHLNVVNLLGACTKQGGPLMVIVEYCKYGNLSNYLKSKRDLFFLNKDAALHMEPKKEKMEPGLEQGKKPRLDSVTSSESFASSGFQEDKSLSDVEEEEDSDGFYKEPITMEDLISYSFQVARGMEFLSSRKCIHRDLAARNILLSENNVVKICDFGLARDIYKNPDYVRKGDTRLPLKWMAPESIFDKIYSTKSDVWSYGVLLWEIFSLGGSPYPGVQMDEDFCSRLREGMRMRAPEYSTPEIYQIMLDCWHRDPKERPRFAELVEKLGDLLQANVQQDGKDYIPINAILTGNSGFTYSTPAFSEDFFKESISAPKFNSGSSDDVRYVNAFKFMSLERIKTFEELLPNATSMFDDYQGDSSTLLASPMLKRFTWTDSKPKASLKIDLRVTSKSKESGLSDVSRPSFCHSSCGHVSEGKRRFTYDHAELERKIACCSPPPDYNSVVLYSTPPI
Cytochrome P450 2D6, sequence (P10635 whole entry): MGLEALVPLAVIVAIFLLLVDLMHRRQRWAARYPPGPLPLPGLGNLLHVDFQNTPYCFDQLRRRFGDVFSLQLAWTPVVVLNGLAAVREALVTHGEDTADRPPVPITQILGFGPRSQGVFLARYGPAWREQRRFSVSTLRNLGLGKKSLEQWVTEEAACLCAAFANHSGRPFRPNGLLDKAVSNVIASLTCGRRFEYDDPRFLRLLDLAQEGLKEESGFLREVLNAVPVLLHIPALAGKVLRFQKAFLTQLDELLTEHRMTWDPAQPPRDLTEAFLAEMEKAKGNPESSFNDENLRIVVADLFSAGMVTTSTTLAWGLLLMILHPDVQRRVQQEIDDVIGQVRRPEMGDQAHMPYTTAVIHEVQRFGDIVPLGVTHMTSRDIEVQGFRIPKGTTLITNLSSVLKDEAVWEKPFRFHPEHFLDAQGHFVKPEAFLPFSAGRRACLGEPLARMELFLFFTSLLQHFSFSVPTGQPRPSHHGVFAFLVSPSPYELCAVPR

With `NC(=O)N1C(=O)/C(=C(\O)c2cccs2)c2cc(Cl)ccc21` [TENIDAP], the IC50 result against Interstitial collagenase was “Not Active”; in experiment [1] (read-out: IC50) it was 55 nM; in experiment [2] it was “Not Active”; in [3] it was “Not Active”; in [4], “Not Active”; in [5], “Not Active”. In addition, the IC50 on Cytochrome P450 1A2 is 1000 nM; against Androgen receptor, “Not Active”. The Ki entry in experiment [3] and in experiment [4] was “Not Active” throughout.

For the molecule `O=C(Nc1ccc(Br)cc1)c1cc(Br)cc(Br)c1O` [TRIBROMSALAN], the IC50 entry at Interstitial collagenase was “Not Active”; in [1] (read-out: IC50), 2070 nM; in experiment [2], “Not Active”; in [3], “Not Active”; in experiment [4] it was “Not Active”; in experiment [5], “Not Active”. In addition, 2000 nM corresponded to half-maximal inhibition against Cytochrome P450 1A2 (IC50). Further, the Ki result in [3] and in [4] was “Not Active” throughout.

Turning to `Clc1ccc(COC(Cn2ccnc2)c2ccc(Cl)cc2Cl)cc1` (stereo not given) [ECONAZOLE], the half-maximal inhibitory concentration (IC50) on Cytochrome P450 2D6 was 400 nM; against Interstitial collagenase, “Not Active”; in [1] (platelet) it was “Not Active”; in [2] it was “Not Active”; in [5] it was “Not Active”; against Cytochrome P450 1A2, 300 nM.

A word on the IC50: it is the point on the concentration scale where inhibition reaches its midpoint.
